Measured values as given in patent publication US20080221205A1, “FURAN DERIVATIVES FOR PREVENTING AND CURING OSTEOPOROSIS AND PHARMACEUTICAL COMPOSITIONS CONTAINING THE SAME” (priority 2002, published 2008).

System: osteoclast formation
Assay: Inhibition rate of furan derivatives versus osteoclast formation (TRAP staining)
Type: cell-based, mice
Conditions: TRAP-positive multinucleated cells, untreated control set as 100%
Description: First, bone marrow cells were isolated, as follow. After sacrificing 7-9 week female mice by cervical dislocation, femur and tibia were excised aseptically while removing attached soft tissues. After cutting both ends of long bones, 1 ml of an enzyme solution, containing 0.1% collagenase (Gibco), 0.05% trypsin and 0.5 mM EDTA (Gibco), was injected to the bone marrow cavity at one end using a syringe with a 26-guage needle, and bone marrow was then collected. After shaking the recovered bone marrow for 30 min, bone marrow cells were collected, and cultured in α-minimum essential medium (α-MEM) supplemented with 10% FBS for 24 hrs. Then, non-adherent cells were collected, which are osteoclast pregenitors, aliquotted onto culture plates at a density of 2×10^5 cells per well, and cultured for 8 days in α-MEM supplemented with 20 ng/ml of macrophage-colony stimulating factor (M-CSF, Peprotech, USA) and 30 ng/ml RANKL (Peprotech, USA). During the 8 days of culturing, the cells were treated with the Compound 1. Thereafter, osteoclast formation was investigated by fixing the cultured cells and then carrying out TRAP staining, as described in the following Experimental Example 2.2. In addition, resorption activity of osteoclasts was investigated by measuring the absorption area after removing osteoclasts in cultures in calcium phosphate-coated plates, as described in Experimental Example 2.3, below.
After cell culture, the adherent cells were washed with PBS, and TRAP staining was performed, as follows. After being fixed with citrate-acetate-formaldehyde for 5 min, the cells were incubated for 1 hr in acetate buffer (prewarmed at 37° C., pH 5.0) containing naphthol AS-BI phosphate, fast Garnet GBC and 7 mM tartrate buffer (pH 5.0). TRAP-positive multinucleated cells having 3 or more nuclei were considered as osteoclasts.
Osteoclast pregenitor cells were isolated, and their differentiation to mature osteoclasts was induced, according to the same method as in the Experimental Example 2-1, while treated with each of the furan derivatives of the present invention. According to the same method as in the Experimental Example 2-2, TRAP staining performed, and TRAP-positive multinucleated cells were counted. An inhibition rate of each furan derivative against osteoclast formation was expressed as percentage, wherein the number of stained cells in a control not treated the furan derivative was arbitrarily set as 100% (Tables 14 to 16).

| Compound | Inhibition rate against osteoclast formation, % (0.1 μM) | Inhibition rate against osteoclast formation, % (1 μM) | Inhibition rate against osteoclast formation, % (10 μM) |
| --- | --- | --- | --- |
| CCc1ccc(OCc2ccc(C(=O)Nc3cc(C)cc(C)c3)o2)cc1 [Compound 169] | 0% | 0% | – |
| Cc1cc(OCc2ccc(C(=O)Nc3cccc(C)c3C)o2)ccc1Cl [Compound 172] | 0% | 0% | – |
| O=Cc1ccc(COC(=O)Cc2ccsc2)o1 [Compound 36] | 0% | – | 30% |
| COC(=O)c1ccc(COc2ccc(Cl)cc2[N+](=O)[O-])o1 [Compound 66] | 0% | 0% | – |
| Cc1cc(C)cc(OCc2ccc(C(=O)Nc3ccccc3F)o2)c1 [Compound 177] | 0% | 0% | – |
| COc1ccc(NC(=O)c2ccc(COc3ccccc3Cl)o2)cc1Cl [Compound 142] | 0% | 0% | – |
| O=C(Nc1ccc(I)cc1)c1ccc(COc2ccccc2Br)o1 [Compound 190] | 0% | 0% | – |
| COC(=O)c1ccc(COc2ccc(Cl)c(C)c2)o1 [Compound 75] | 0% | 0% | 0.78% |
| O=C(c1ccc(COc2cc(Cl)ccc2Cl)o1)N1CCCCCC1 [Compound 133] | 0% | 0% | 0.5% |
| CCCCNC(=O)OCc1ccc(C=O)o1 [Compound 53] | 0% | 10% | – |
| O=Cc1ccc(COC(=O)Nc2cccc(Cl)c2)o1 [Compound 49] | 0% | 10% | 0% |
| COc1ccc(NC(=O)c2ccc(COc3ccc(Cl)c(C)c3)o2)cc1 [Compound 150] | 0% | 0% | – |
| NC(=O)c1ccc(NC(=O)c2ccc(COc3cc(Cl)ccc3Cl)o2)cc1 [Compound 148] | 0% | – | – |
| COC(=O)c1ccc(COc2ccc(I)cc2)o1 [Compound 79] | 0% | 0% | – |
| C=CCc1ccc(OCc2ccc(C(=O)OC)o2)c(OC)c1 [Compound 59] | 0% | 0% | – |
| Cc1cc(OCc2ccc(C(=O)O)o2)ccc1Cl [Compound 119] | 0% | 0% | – |
| O=C(Nc1ccc(F)cc1F)c1ccc(COc2c(F)c(F)cc(F)c2F)o1 [Compound 185] | 0% | 0% | – |
| O=C(O)c1ccc(COc2ccccc2Br)o1 [Compound 108] | 0% | 0% | – |
| COc1ccc(NC(=O)c2ccc(COc3ccccc3Br)o2)c(OC)c1 [Compound 188] | 0% | 0% | 7.6% |
| O=C(O)c1ccc(COc2cccc3ccccc23)o1 [Compound 117] | 0% | 0% | – |
| O=Cc1ccc(COC(=O)Cc2c(F)cccc2F)o1 [Compound 33] | 0% | 3.3% | 50% |
| COc1ccccc1OCc1ccc(C(=O)Oc2ccc(Cl)cc2)o1 [Compound 97] | 0% | 0% | – |
| O=C(O)c1ccc(COc2ccccc2Cl)o1 [Compound 107] | 0% | 0% | 32% |
| CC(C)(C)NC(=O)c1ccc(COc2ccccc2Br)o1 [Compound 129] | 0% | 0% | 2.2% |
| COc1ccccc1OCc1ccc(C(=O)OC(C)C)o1 [Compound 94] | 0% | 0% | 5.9% |

| Compound | Inhibition rate against osteoclast formation, % (0.1 μM) | Inhibition rate against osteoclast formation, % (1 μM) | Inhibition rate against osteoclast formation, % (10 μM) |
| --- | --- | --- | --- |
| CC(C)OC(=O)c1ccc(COc2cc(Cl)ccc2Cl)o1 [Compound 95] | 0% | 0% | 0.97% |
| O=Cc1ccc(COC(=O)Cc2cccc(F)c2)o1 [Compound 37] | 0% | 10% | – |
| O=C(Nc1cc(C(F)(F)F)ccc1Cl)c1ccc(COc2ccc(Cl)cc2)o1 [Compound 181] | 0% | 0% | – |
| COC(=O)c1ccc(COc2cc(C)ccc2C(C)C)o1 [Compound 68] | 0% | 0% | 5.62% |
| O=Cc1ccc(COC(=O)Nc2ccccc2Cl)o1 [Compound 55] | 0% | 20% | 20% |
| O=C(Nc1cc(F)ccc1F)c1ccc(COc2cccc(Cl)c2)o1 [Compound 151] | 0% | 0% | – |
| O=Cc1ccc(COC(=O)C(c2ccccc2)(c2ccccc2)c2ccccc2)o1 [Compound 40] | 0% | – | – |
| CC(=O)c1ccc(NC(=O)c2ccc(COc3cccc4ccccc34)o2)cc1 [Compound 160] | 0% | 0% | – |
| O=C(Nc1ccc(F)cc1)c1ccc(COc2cccc(Cl)c2)o1 [Compound 141] | 0% | 0% | – |
| CCC(C)NC(=O)c1ccc(COc2ccc(I)cc2)o1 (stereo not shown) [Compound 121] | 0% | 0% | – |
| CC(C)(C)c1ccc(OCc2ccc(C(=O)Nc3ccccc3)o2)cc1 [Compound 136] | 0% | 0% | – |
| O=C(Nc1ccccc1[N+](=O)[O-])c1ccc(COc2ccccc2Cl)o1 [Compound 183] | 0% | 0% | – |
| COC(=O)c1ccc(COc2ccc(Cl)cc2)o1 [Compound 80] | 0% | 0% | – |
| O=C(Nc1cccc(Br)c1)c1ccc(COc2ccc(F)cc2)o1 [Compound 140] | 0% | 0% | – |
| COc1cccc(F)c1CC(=O)OCc1ccc(C=O)o1 [Compound 41] | 0% | – | – |
| Cc1cccc(C)c1NC(=O)c1ccc(COc2ccc(Cl)cc2)o1 [Compound 179] | 0% | 0% | – |
| COC(=O)c1ccc(COc2ccc3c(c2)CCC3)o1 [Compound 70] | 0% | 0% | – |
| O=C(Nc1cc(F)ccc1F)c1ccc(COc2ccccc2Cl)o1 [Compound 161] | 0% | 0% | – |
| O=C(c1ccc(COc2ccccc2Br)o1)N1CCCCCC1 [Compound 128] | – | 0% | – |
| COc1ccc(NC(=O)c2ccc(COc3cc(Cl)ccc3Cl)o2)c(OC)c1 [Compound 145] | 0% | – | – |
| Cc1ccc(OCc2ccc(C(=O)Nc3ccc(F)c(F)c3)o2)cc1C [Compound 186] | 0% | 0% | – |
| O=C(Nc1ccc(F)c(F)c1)c1ccc(COc2ccc(I)cc2)o1 [Compound 143] | 0% | 0% | – |
| CC(C)NC(=O)c1ccc(CNc2cc(Cl)ccc2Cl)o1 [Compound 130] | 0% | 0% | – |
| Cc1cc(OCc2ccc(C(=O)Nc3ccc(Cl)cc3)o2)ccc1Cl [Compound 173] | 0% | 0% | – |
| CC1CCN(C(=O)c2ccc(COc3cc(Cl)ccc3Cl)o2)CC1 [Compound 124] | 0% | 0% | – |
